Data: US20050192314A1, “Urea derivatives as C-kit modulators” (Ambit Biosciences Corporation, priority 2003, published 2005)
pKd: −log10 of the molar value.

Tests used:
[1] = molecular target: T1, KIT(DKIN) (Homo sapiens, UniProt P10721); test: Binding constant (Kd) measurement, phage-displayed kinase competition binding assay: KIT(DKIN)
T1 construct: KIT(DKIN); made in house
Source text: (§1) The term “ND” represents non-determined values.

[2] = molecular target: T2, KIT(JMminus) (Homo sapiens, UniProt P10721); test: Binding constant (Kd) measurement, phage-displayed kinase competition binding assay: KIT(JMminus)
T2 construct: KIT(JMminus); made in house
T2 sequence (P10721 589-937 limits assumed): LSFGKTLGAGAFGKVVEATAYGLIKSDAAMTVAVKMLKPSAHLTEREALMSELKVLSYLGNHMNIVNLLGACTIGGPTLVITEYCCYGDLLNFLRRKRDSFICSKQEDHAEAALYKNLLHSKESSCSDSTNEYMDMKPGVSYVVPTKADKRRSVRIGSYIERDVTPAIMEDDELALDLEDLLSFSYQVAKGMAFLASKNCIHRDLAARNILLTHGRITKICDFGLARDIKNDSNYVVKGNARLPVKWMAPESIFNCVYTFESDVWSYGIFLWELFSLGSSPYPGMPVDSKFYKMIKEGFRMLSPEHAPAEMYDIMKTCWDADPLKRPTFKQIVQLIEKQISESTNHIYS
Source text: as §1

[3] = molecular target: T3, KIT(JMminus,D816V) (Homo sapiens, UniProt P10721, D816V); test: Binding constant (Kd) measurement, phage-displayed kinase competition binding assay: KIT(JMminus,D816V)
T3 construct: KIT(JMminus,D816V); made in house
T3 sequence (P10721 589-937 D816V limits assumed): as the sequence (P10721 589-937 limits assumed) above, with D228V counted along it
Source text: as §1

T1 sequence (P10721 589-937 limits assumed): as the sequence (P10721 589-937 limits assumed) above

Row | SMILES | pKd [1] | pKd [2] | pKd [3]
1 | CC(C)(C)c1cc(NC(=O)Nc2ccc(Nc3nc(Cl)nc4[nH]cnc34)cc2)no1 [Compound O4] | > 7.00 | > 7.00 | 
2 | CC(C)(C)c1cc(NC(=O)Nc2ccc(NC(=O)c3cn4nc(Cl)ccc4n3)cc2)no1 [Compound N9] | > 7.00 | > 7.00 | 
3 | CC(C)(C)c1cc(NC(=O)Nc2ccc(NC(=O)c3ccc4ccncc4n3)cc2)no1 [Compound N110] | > 7.00 | > 7.00 | 
4 | CC(=O)Oc1cccnc1C(=O)Nc1ccc(NC(=O)Nc2cc(C(C)(C)C)on2)cc1 [Compound N79] |  | > 7.00 | 6.00 to 7.00
5 | Cc1nc(-c2ccc(C(=O)Nc3ccc(NC(=O)Nc4cc(C(C)(C)C)on4)cc3)s2)cs1 [Compound N173] | 6.00 to 7.00 | > 7.00 | 
6 | CC(C)(C)c1cc(NC(=O)Nc2ccc(OCCCc3ccncc3)cc2)no1 [Compound G1, 1-(4-(3-(pyridin-4-yl)propoxy)phenyl)-3-(5-tert-butylisoxazol-3-yl)urea] | > 7.00 | > 7.00 | 
7 | Cc1[nH]c(C(=O)Nc2ccc(NC(=O)Nc3cc(C(C)(C)C)on3)cc2)c(C)c1CCC(=O)O [Compound N39] | > 7.00 |  | 6.00 to 7.00
8 | CC(C)(C)c1cc(NC(=O)Nc2ccc(Nc3ncnc4[nH]cnc34)cc2)no1 [Compound O3] | > 7.00 |  | > 7.00
9 | Cc1cnc(C(=O)Nc2ccc(NC(=O)Nc3cc(C(C)(C)C)on3)cc2)cn1 [Compound O2] | > 7.00 | > 7.00 | 
10 | Cc1ccc2sc(C(=O)Nc3ccc(NC(=O)Nc4cc(C(C)(C)C)on4)cc3)cc2c1 [Compound N133] | 6.00 to 7.00 | > 7.00 | 
11 | Cc1nc(N)cc(Nc2ccc(NC(=O)Nc3cc(C(C)(C)C)on3)cc2)n1 [Compound O10] | 6.00 to 7.00 | > 7.00 | 
12 | CC(C)(C)c1cc(NC(=O)Nc2ccc(NC(=O)c3cc(Cl)nnc3Cl)cc2)no1 [Compound N174] | 5.00 to 6.00 | 5.00 to 6.00 | 
13 | COc1cc(C(=O)Nc2ccc(NC(=O)Nc3cc(C(C)(C)C)on3)cc2)nc(OC)n1 [Compound N162] |  | > 7.00 | 
14 | Cc1ccc(-c2nc(C(=O)Nc3ccc(NC(=O)Nc4cc(C(C)(C)C)on4)cc3)cs2)cc1 [Compound N178] |  | > 7.00 | 
15 | CC(C)(C)c1cc(NC(=O)Nc2ccc(NC(=O)c3ccc4sccc4c3)cc2)no1 [Compound N122] | 6.00 to 7.00 | > 7.00 | 
16 | COc1cc(OC)nc(N(C)c2cccc(C(=O)Nc3ccc(NC(=O)Nc4ccon4)cc3)c2)n1 [Compound N53] |  | > 7.00 | 
17 | CC(C)(C)c1cc(NC(=O)Nc2ccc(NC(=O)c3nn(-c4cccc(C(F)(F)F)c4)c(=O)cc3O)cc2)no1 [Compound N185] |  | > 7.00 | 

Further lines, results first:

Row | pKd [1] | pKd [2] | pKd [3] | SMILES
18 | > 7.00 | > 7.00 |  | CC(C)(C)c1cc(NC(=O)Nc2ccc(NC(=O)c3cccc(F)n3)cc2)no1 [Compound N8]
19 | > 7.00 | > 7.00 |  | Cc1cccnc1C(=O)Nc1ccc(NC(=O)Nc2cc(C(C)(C)C)on2)cc1 [Compound N41]
20 | > 7.00 | > 7.00 |  | Cc1cccc(C(=O)Nc2ccc(NC(=O)Nc3cc(C(C)(C)C)on3)cc2)n1 [Compound N121]
21 | > 7.00 | > 7.00 |  | CC(C)(C)c1cc(NC(=O)Nc2ccc(NC(=O)c3cc4ccccc4cn3)cc2)no1 [Compound N106]
22 | > 7.00 | > 7.00 |  | CC(C)(C)c1cc(NC(=O)Nc2ccc(NC(=O)c3ccc4ccccc4n3)cc2)no1 [Compound N143]
23 | > 7.00 | > 7.00 |  | CC(C)(C)c1cc(NC(=O)Nc2ccc(NC(=O)c3cccc(Cl)n3)cc2)no1 [Compound N4]
24 | 6.00 to 7.00 | > 7.00 |  | CC(C)(C)c1cc(NC(=O)Nc2ccc(NC(=O)/C=C/c3ccccc3Cl)cc2)no1 [Compound N40]
25 | > 7.00 | > 7.00 |  | CC(C)(C)c1cc(NC(=O)Nc2ccc(NC(=O)c3ccc4ccccc4c3)cc2)no1 [Compound N28]
26 | 6.00 to 7.00 | > 7.00 |  | Cc1ccc(C(=O)Nc2ccc(NC(=O)Nc3cc(C(C)(C)C)on3)cc2)cc1 [Compound N92]
